Results as given in US10640545B2 (THE GOVERNORS OF THE UNIVERSITY OF ALBERTA, priority 2017, dated 2020).
Where a SMILES comes first, the peptide text is derived from it. [ ]: non-standard residue; d: D form. Phe(4-Br) = N[C@@H](Cc1ccc(Br)cc1)C(=O)O; NMeL = CN[C@@H](CC(C)C)C(=O)O; Nle = CCCC[C@H](N)C(=O)O; Aib = CC(C)(N)C(=O)O

Legend:
isolated rat hearts = experiment: Langendorff isolated heart, ischemia-reperfusion injury; settings: ex vivo heart, 30 min ischemia
Experimental: The ex vivo heart was assessed for a variety of parameters (heart rate (HR); left ventricle developed pressure (LVDP); maximum derivative of change in systolic pressure over time (max dP/dt); minimum derivative of change in diastolic pressure over time (min dP/dt); and rate-pressure product (RPP)) indicative of general heart function and performance (FIG. 11).
Langendorff heart perfusion and ischemia-reperfusion injury were prepared and cardiac function was measured. Mice were heparinized and anaesthetized with 1.5-2% isoflurane inhalation. The heart was excised, mounted on a Langendorff system, and perfused at a consistent pressure of 80 mmHg with modified Krebs-Henseleit solution (116 mM NaCl, 3.2 mM KCl, 2.0 mM CaCl2), 1.2 mM MgSO4, 25 mM NaHCO3, 1.2 mM KH2PO4, 11 mM glucose, 0.5 mM EDTA and 2 mM pyruvate), which was kept at 37° C. and continuously oxygenated with 95% O2 and 5% CO2 which maintained the perfusion buffer at pH 7.4. After stabilization and 10 min baseline recording, global ischemia was induced for 30 min followed by 40 min of reperfusion. Apelin 17 (2) or apelin peptides (11, 17, 18, or 19) were given at the start of reperfusion for 10 min at a concentration of 1 pM. Left ventricular functions were obtained continuously by PowerLab system (ADInstruments, Australia). Data was reported as mean value of every 5 min. Left ventricular functions were reported as: Left Ventricular Developed Pressure (LVDP); Heart rate (HR); maximum derivative of change in systolic pressure over time (max dP/dt); minimum derivative of change in diastolic pressure over time (min dP/dt); and Rate Pressure Product (RPP).

NEP = NEP (Homo sapiens, UniProt P08473); experiment: Neprilysin inhibition assay (degradation of 1 after preincubation with peptide); type: biochemical; parameters: purchased Sino Biological; settings: preincubation of NEP with equimolar peptide
Experimental: This experiment investigates the ability of synthetic peptides 8-19 to inhibit the inherent proteolytic activity of NEP.
Assays were performed in duplicate (n=2) for each time point.

KLKB1 [1] = target: T1, KLKB1 (Homo sapiens, UniProt P03952); experiment: Kinetic parameters for KLKB1 cleavage; type: biochemical; parameters: purchased Novoprotein; settings: for Km / kcat: enzyme KLKB1
[2] = target: T2, wild-type rat apelin receptor (Rattus norvegicus, UniProt Q9JHG3); experiment: Radioligand binding, displacement of [125I]-pyr-1-apelin-13 on CHO cell membranes
T2 construct: expressed in transfected cells
T2 sequence (Q9JHG3 1-377): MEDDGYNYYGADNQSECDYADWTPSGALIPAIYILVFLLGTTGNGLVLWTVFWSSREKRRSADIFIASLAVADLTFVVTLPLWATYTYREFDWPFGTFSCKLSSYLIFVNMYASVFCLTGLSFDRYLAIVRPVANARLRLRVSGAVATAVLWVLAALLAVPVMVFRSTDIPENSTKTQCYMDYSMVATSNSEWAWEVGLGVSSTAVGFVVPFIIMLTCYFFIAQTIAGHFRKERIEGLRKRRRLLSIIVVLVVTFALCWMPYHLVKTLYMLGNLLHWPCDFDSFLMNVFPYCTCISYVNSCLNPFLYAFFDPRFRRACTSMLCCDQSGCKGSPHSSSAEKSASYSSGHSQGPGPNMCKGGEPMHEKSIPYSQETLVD
Method in brief: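 Membranes (1 μg) from CHO cells stably expressing rat apelin receptor-EGFP incubated 3 h at 20 °C with 0.2 nM [125I]-pyr-1-apelin-13 and varying peptide concentrations in 50 mM HEPES, 5 mM MgCl2, 1% BSA, pH 7.5. Bound radioactivity measured by filtration and gamma counting.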

[3] = target: T3, KLKB1 (plasma kallikrein) (Homo sapiens, UniProt P03952); experiment: In vitro KLKB1 stability (half-life); type: in vitro ADME; settings: human
T3 construct: purchased Novoprotein

KLKB1 [4] = target: T1, KLKB1; experiment: In vitro KLKB1 stability (half-life); type: in vitro ADME; parameters: purchased Novoprotein; settings: rhKLKB1, 37° C.

T1 sequence (P03952 20-638): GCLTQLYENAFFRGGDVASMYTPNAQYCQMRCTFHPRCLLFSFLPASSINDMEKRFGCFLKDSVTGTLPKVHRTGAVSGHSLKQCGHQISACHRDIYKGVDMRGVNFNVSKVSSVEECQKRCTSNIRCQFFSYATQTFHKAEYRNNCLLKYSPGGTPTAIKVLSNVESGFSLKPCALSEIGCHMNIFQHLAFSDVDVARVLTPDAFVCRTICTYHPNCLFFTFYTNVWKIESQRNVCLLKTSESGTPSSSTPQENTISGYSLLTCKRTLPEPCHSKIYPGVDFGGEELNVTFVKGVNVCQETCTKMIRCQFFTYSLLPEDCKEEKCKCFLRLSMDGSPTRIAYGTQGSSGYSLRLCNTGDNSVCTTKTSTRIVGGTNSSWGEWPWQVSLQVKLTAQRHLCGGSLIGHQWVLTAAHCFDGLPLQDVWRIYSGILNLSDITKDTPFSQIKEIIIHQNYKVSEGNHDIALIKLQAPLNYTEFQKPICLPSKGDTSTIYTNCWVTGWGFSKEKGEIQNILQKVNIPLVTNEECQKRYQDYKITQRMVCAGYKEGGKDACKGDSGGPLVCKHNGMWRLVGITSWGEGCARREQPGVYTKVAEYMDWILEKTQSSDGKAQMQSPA
T3 sequence (P03952 20-638): as above
NEP, sequence (P08473 whole entry): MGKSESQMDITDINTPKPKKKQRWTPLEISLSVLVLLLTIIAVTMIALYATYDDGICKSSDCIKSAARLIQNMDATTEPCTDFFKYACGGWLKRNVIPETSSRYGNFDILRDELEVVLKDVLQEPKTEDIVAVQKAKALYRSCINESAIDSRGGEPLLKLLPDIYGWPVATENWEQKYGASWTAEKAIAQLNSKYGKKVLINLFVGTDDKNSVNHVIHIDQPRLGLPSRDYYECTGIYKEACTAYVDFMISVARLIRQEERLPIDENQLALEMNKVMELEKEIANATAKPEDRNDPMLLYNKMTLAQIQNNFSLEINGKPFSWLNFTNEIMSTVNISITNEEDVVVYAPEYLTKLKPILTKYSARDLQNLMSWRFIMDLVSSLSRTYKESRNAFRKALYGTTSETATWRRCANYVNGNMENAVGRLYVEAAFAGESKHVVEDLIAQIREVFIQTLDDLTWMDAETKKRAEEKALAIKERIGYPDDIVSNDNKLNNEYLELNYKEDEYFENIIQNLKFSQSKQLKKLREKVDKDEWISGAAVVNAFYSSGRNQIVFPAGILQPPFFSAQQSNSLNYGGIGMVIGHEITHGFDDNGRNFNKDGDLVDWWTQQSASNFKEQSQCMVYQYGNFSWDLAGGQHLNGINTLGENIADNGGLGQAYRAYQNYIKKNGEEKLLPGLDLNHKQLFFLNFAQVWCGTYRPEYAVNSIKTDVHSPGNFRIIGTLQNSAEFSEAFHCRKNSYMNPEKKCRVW

degradation by KLKB1 (in words) (KLKB1 [1]; KLKB1)	Km (KLKB1 [1]) [µM]	kcat (KLKB1 [1]) [s⁻¹]	receptor binding affinity (in words) ([2]; rat apelin receptor)	half-life [3] [min]	Ki ([2]; displacement of [125I]-pyr-1-apelin-13 (0.2 nM), CHO membranes, rat apelin receptor-EGFP, means ± SE, read-out: Affinity Ki) [nM]	t1/2 (rhKLKB1, h) (KLKB1 [4]) [h]	SMILES	ability to rescue the heart from ischemic reperfusion injury (isolated rat hearts; peptide at start of reperfusion for 10 min at 1 pM)	max/min dP/dt, LVDP and RPP compared to native isoform 2 (isolated rat hearts; reperfusion)	inhibition of the proteolytic activity of NEP (NEP)
degraded quickly	245 ± 75	16.5 ± 2.1	sub-nanomolar receptor affinities	54			CCCC[C@H](NC(=O)[C@@H]1CCCN1C(=O)CNC(=O)[C@H](CCCCN)NC(=O)[C@H](Cc1c[nH]cn1)NC(=O)[C@H](CO)NC(=O)[C@H](CC(C)C)N(C)C(=O)[C@H](CCCNC(=N)N)NC(=O)[C@@H]1CCCN1C(=O)[C@H](CCCNC(=N)N)NC(=O)[C@H](CCC(N)=O)NC(=O)[C@H](CCCNC(=N)N)NC(=O)[C@H](CCCNC(=N)N)NC(=O)[C@H](Cc1ccccc1)NC(=O)[C@@H](N)CCCCN)C(=O)NC(C)(C)C(=O)N[C@@H](Cc1ccc(Br)cc1)C(=O)O [Peptide 11] (H-KFRRQRPR[NMeL]SHKGP[Nle][Aib][Phe(4-Br)]-OH; C-terminus assumed)	equivalent ability to rescue the heart from ischemic reperfusion injury compared to native isoform 2	slight improvement over the native isoform	no ability to inhibit the inherent activity of NEP
	97 ± 21	13.7 ± 1.3			0.05	0.4	CSCC[C@H](NC(=O)[C@@H]1CCCN1C(=O)CNC(=O)[C@H](CCCCN)NC(=O)[C@H](Cc1cnc[nH]1)NC(=O)[C@H](CO)NC(=O)[C@H](CC(C)C)NC(=O)[C@H](CCCNC(=N)N)NC(=O)[C@@H]1CCCN1C(=O)[C@H](CCCNC(=N)N)NC(=O)[C@H](CCC(N)=O)NC(=O)[C@H](CCCNC(=N)N)NC(=O)[C@H](CCCNC(=N)N)NC(=O)[C@H](Cc1ccccc1)NC(=O)[C@@H](N)CCCCN)C(=O)N1CCC[C@H]1C(=O)N[C@@H](Cc1ccccc1)C(=O)O [Peptide 2, reference compound]			
